PubChem BioAssay AID1259338 (Broad Institute, 2017)
Calls of active or inactive are those of the source.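 How the source made its calls: active means compounds lowering the signal with a fitted AC50 at or below a set concentration limit; inconclusive means flat curve with 30 to 70% inhibition, or a poor fit; inactive means the rest.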

Biological target: Caspase recruitment domain-containing protein 9 (Homo sapiens) + E3 ubiquitin-protein ligase TRIM62 (Homo sapiens) (UniProt Q9H257+Q9BVG3)
Assay: CARD9/TRIM62 protein interaction inhibitors – cell lysate, HEK293FT lysates, Luminex bead readout, dose response (AID 1259338); on activity change, negative = inhibition: reference of the scale not given here
Conditions: Luminex bead PPI, MFI; for activity change, negative = inhibition: at 80 µM (top of the series)

Chain of Caspase recruitment domain-containing protein 9 (Homo sapiens) + E3 ubiquitin-protein ligase TRIM62 (Homo sapiens) (Q9BVG3 whole entry, looked up, the tested form may be a part): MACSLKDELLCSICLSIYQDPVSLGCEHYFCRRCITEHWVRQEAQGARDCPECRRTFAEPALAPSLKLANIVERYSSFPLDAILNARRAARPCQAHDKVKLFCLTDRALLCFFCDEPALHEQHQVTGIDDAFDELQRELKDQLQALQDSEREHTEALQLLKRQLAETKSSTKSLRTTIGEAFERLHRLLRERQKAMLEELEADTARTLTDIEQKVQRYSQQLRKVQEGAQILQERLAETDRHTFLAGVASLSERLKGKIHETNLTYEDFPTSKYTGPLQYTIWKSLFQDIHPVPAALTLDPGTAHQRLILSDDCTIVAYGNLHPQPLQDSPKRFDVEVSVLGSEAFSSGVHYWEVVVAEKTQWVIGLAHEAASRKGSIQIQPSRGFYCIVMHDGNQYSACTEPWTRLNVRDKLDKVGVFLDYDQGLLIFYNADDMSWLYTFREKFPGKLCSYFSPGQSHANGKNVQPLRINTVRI
Chain of Caspase recruitment domain-containing protein 9 (Homo sapiens) + E3 ubiquitin-protein ligase TRIM62 (Homo sapiens) (Q9H257 whole entry, looked up, the tested form may be a part): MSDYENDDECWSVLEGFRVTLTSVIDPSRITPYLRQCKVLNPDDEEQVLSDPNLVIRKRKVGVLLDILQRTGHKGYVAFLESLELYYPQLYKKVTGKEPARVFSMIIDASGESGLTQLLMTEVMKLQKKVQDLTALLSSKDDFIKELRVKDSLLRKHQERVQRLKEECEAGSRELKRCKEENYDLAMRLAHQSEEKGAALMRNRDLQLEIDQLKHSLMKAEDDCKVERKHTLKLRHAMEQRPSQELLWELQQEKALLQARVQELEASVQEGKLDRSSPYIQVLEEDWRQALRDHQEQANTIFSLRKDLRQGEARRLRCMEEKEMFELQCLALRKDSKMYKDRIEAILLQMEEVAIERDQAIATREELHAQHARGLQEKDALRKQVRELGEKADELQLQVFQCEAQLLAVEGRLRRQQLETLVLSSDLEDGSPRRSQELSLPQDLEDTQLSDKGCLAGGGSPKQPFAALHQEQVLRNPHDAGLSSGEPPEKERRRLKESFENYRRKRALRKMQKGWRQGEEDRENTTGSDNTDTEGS

Row | Compound | activity change, negative = inhibition | AC50
1 | CC(=O)c1sc2nc(-c3ccco3)ccc2c1N | inactive | 
2 | CC(=O)c1cccc(OCC(=O)N(C)CC(=O)NCc2ccco2)c1 |  | 82.2 µM
3 | CCSCCNC(=O)c1cncc(Br)c1 | inactive | 
4 | N#CNc1nc(O)cc(=O)[nH]1 | inactive | 
5 | Cc1cccc(NC(=O)Cc2coc3ccc4ccccc4c23)n1 | inactive | 
6 | Cc1c(/C=C/c2nc3ccccc3c(=O)n2-c2ccccn2)c2ccccc2n1C | inactive | 
7 | NC(=O)C1(N2CCCCC2)CCN(c2ccc(NC(=O)c3ccccc3F)cc2C(=O)O)CC1 |  | 42 µM
8 | O=C(COC(=O)c1cc(-c2ccco2)nc2ccccc12)NCc1ccccc1 | inactive | 
9 | NC(=O)C1(N2CCCCC2)CCN(c2ncc(NC(=O)c3ccccc3)cc2C(=O)O)CC1 |  | 3.25 µM
10 | COc1ccc(N2CC3=C(N2)c2ccccc2CC3)cc1 | inactive | 
11 | O=C(COC(=O)c1cc(-c2cccs2)nc2ccccc12)NCc1ccco1 | inactive | 
12 | CCN1CCN(C(=O)c2cc(-c3ccco3)nc3ccccc23)CC1 |  | 61.4 µM
13 | Cc1scc(C(=O)NCc2ccco2)c1-c1ccccc1 | inactive | 
14 | O=C(COC(=O)CCC(=O)c1cccs1)NCc1ccco1 | inactive | 
15 | O=C(COC(=O)c1cc(-c2ccco2)nc2ccccc12)NCc1ccc2c(c1)OCO2 | inactive | 
16 | O=[N+]([O-])c1c(NCCCO)cc(SCc2ccco2)c2nonc12 | inactive | 
17 | O=C(CCn1cncn1)N1CCC(n2cc(-c3ccccn3)nn2)CC1 | inactive | 
18 | N#Cc1c(N)oc(-c2ccco2)c1-c1ccco1 |  | > 160 µM (inactive)
19 | Cc1cc(C(=O)NCc2ccco2)on1 | inactive | 
20 | C[C@H](CO)N1C[C@H](C)[C@@H](CN(C)C(=O)C2CCCCC2)OCCCC[C@H](C)Oc2ccc(NS(=O)(=O)c3ccccc3)cc2C1=O | inactive | 
21 | Cc1ccc2cc(CN(Cc3ccco3)S(C)(=O)=O)c(=O)[nH]c2c1 |  | > 160 µM (inactive)
22 | O=C1c2ccccc2-c2nc3ccccc3nc21 |  | > 160 µM (inactive)
23 | CCc1ccc(Nc2nc(C(=O)NCc3ccc(N(C)C)cc3)nc3ccccc23)cc1 |  | 49 µM
24 | COc1ccc(F)c(CN2C[C@H]3CC[C@@H]2CN(Cc2cscn2)C3)c1 | inactive | 

Row | Compound | activity change, negative = inhibition | AC50
25 | Cc1oc(CSCc2cc(C(=O)O)c(C)o2)cc1C(=O)O | inactive | 
26 | O=[N+]([O-])c1ccc2nn(Cc3ccccc3)cc2c1 | inactive | 
27 | c1ccc(-c2nc(-c3ccco3)n3ccccc23)cc1 |  | > 76 µM (inactive)
28 | O=C(Nc1ccc(OCC(=O)N2CCOCC2)cc1)c1cncc(Br)c1 |  | 42.1 µM
29 | O=[N+]([O-])c1cccc(-c2nnc3ccc4ccccc4n23)c1 |  | 80.2 µM
30 | Cc1ccc(-c2nnc(-c3nc(Nc4nc5ccccc5s4)c4ccccc4n3)o2)cc1 |  | 42.1 µM
31 | Cc1cccc2nc(CSCc3ccco3)cn12 |  | > 160 µM (inactive)
32 | O=C(COC(=O)c1ccc(F)cc1F)Nc1ncccn1 |  | 38.8 µM
33 | O=[N+]([O-])c1ccc2cc[nH]c2c1 | inactive | 
34 | CCc1oc2ccccc2c1C(=O)CCN1CCCCC1 | inactive | 
35 | O=C(Nc1nc(-c2ccco2)c(-c2ccco2)s1)c1ccc(F)cc1F | inactive | 
36 | Cc1nc(C)c(C(=O)Nc2ncc([N+](=O)[O-])s2)o1 | inactive | 
37 | COc1c(C(=O)O)csc1Br |  | 29.6 µM
38 | O=S(=O)(c1ccccc1)N1CC2CN(Cc3ccc(O)cc3)C2C1 (stereo not given) |  | 22.8 µM
39 | COCCCNC(=O)C1CCN(c2ccc(N3CCOCC3)nn2)CC1 | inactive | 
40 | Nc1c(C(=O)NCc2ccco2)c2nc3ccccc3nc2n1CCN1CCOCC1 |  | > 160 µM (inactive)
41 | c1coc(-c2cn3ccc4ccccc4c3n2)c1 | inactive | 
42 | Cc1ccc(S(=O)(=O)Nc2ccc3c(c2)C(=O)N([C@H](C)CO)C[C@H](C)[C@@H](CN(C)CC2CCCCC2)OCCCC[C@H](C)O3)cc1 | inactive | 
43 | NC(=O)c1ccc(CN2C(=O)C3(CCNCC3)Nc3ccccc32)cc1 |  | > 160 µM (inactive)
44 | C[C@H](CO)N1C[C@H](C)[C@@H](CN(C)C(=O)C2CCCCC2)OCCCC[C@H](C)Oc2ccc(NS(C)(=O)=O)cc2C1=O | inactive | 
45 | CN1C(=O)C(c2ccccc2[N+](=O)[O-])C(=O)c2ccccc21 (stereo not given) | inactive | 
46 | Cc1cnc(C)c(N2CCN(C(=O)[C@H]3CC[C@@H](N)C3)CC2)n1 | inactive | 
47 | O=C(O)C(c1ccccc1)C(c1ccccc1)c1ccccc1 (stereo not given) | inactive | 
48 | O=C(NCCc1ccco1)c1ccc(OCc2cn3ccccc3n2)cc1 | inactive | 

Row | Compound | activity change, negative = inhibition | AC50
49 | CCOc1ccc(CNc2nc(-c3nnc(-c4ccc(F)cc4)o3)nc3ccccc23)cc1 | inactive | 
50 | CCOC(=O)C1CCN(C(=O)CN(Cc2ccccc2)S(C)(=O)=O)CC1 |  | > 76 µM (inactive)
51 | Clc1ccc2nc(CN3CCCCCC3)cn2c1 | inactive | 
52 | Cc1ccc(Nc2nc(C(=O)Nc3ccc(Cl)cc3)nc3ccccc23)cc1 |  | 22.9 µM
53 | CCc1nc(OCc2ccco2)c2sc3nc4c(cc3c2n1)COC(C)(C)C4 | inactive | 
54 | O=C(O)c1cc(-c2ccc(-c3ccc(F)cc3)o2)nc2ccccc12 | inactive | 
55 | O=C(O)c1cc(-c2ccco2)nc2ccccc12 | inactive | 
56 | O=S(=O)(Nc1nccs1)c1ccc(-n2cccc2)cc1 | inactive | 
57 | O=S(=O)(c1ccc(F)cc1)N1CN(Cc2ccco2)c2nc3ccccc3nc21 | inactive | 
58 | COc1ccc(S(=O)(=O)c2ccccc2)cc1NS(=O)(=O)c1cccc(C(=O)O)c1 |  | > 160 µM (inactive)
59 | CC1CCN(c2nc(-c3ccco3)c3c(c2C#N)CC(C)(C)OC3)CC1 | inactive | 
60 | Nc1c2c(nc3ccccc13)CCN(Cc1ccccc1)C2 | inactive | 
61 | COc1ccc(-n2c(C)c3c(OC)cccc(=O)c3c2C)cc1 |  | 79.7 µM
62 | COc1ccc(-c2nc(SCC(=O)N3CCN(c4ccccc4OC)CC3)n[nH]2)cc1 | inactive | 
63 | CC(CCc1ccco1)N(C)S(=O)(=O)c1ccc2[nH]c(=O)ccc2c1 (stereo not given) | inactive | 
64 | O=C(NCc1ccco1)c1ccc(S(=O)(=O)N2CCOCC2)cc1 | inactive | 
65 | C[C@H](CO)N1C[C@H](C)[C@@H](CN(C)C(=O)C2CCCCC2)OCCCC[C@H](C)Oc2ccc(NS(=O)(=O)c3ccc(Cl)cc3)cc2C1=O | inactive | 
66 | COc1ccc(N2Cc3cccc(C(=O)NC(C)CCc4ccco4)c3C2=O)cc1 (stereo not given) | inactive | 
67 | Cn1nnnc1SCCNCc1ccc(-c2cccc(C(F)(F)F)c2)o1 | inactive | 
68 | c1cn(CCc2noc(C3CCCC3)n2)c(-c2cc3n(n2)CCCNC3)n1 |  | 53.7 µM
69 | O=C(O)COCC(=O)NCc1ccco1 | inactive | 
70 | C[C@H](CO)N1C[C@H](C)[C@@H](CN(C)CC2CCCCC2)OCCCC[C@H](C)Oc2ccc(NS(C)(=O)=O)cc2C1=O |  | 28.9 µM
